# According to ChEMBL document CHEMBL3286379, “Design and synthesis of pyrimidine molecules endowed with thiazolidin-4-one as new anticancer agents” (Eur J Med Chem, 2014):
# Key:
# Type in all cases: functional
# SNB-19 = experiment: Growth inhibition of human SNB19 cells assessed as cell growth at 10 uM after 48 hrs by sulforhodamine B assay relative to control; conditions: SNB-19, 48 h, read-out: Activity
# NCI-H23 = experiment: Growth inhibition of human NCI-H23 cells assessed as cell growth at 10 uM after 48 hrs by sulforhodamine B assay relative to control; conditions: NCI-H23, 48 h, read-out: Activity
# SK-MEL-5 = experiment: Growth inhibition of human SK-MEL-5 cells assessed as cell growth at 10 uM after 48 hrs by sulforhodamine B assay relative to control; conditions: SK-MEL-5, 48 h, read-out: Activity
# HT-29 = experiment: Growth inhibition of human HT-29 cells assessed as cell growth at 10 uM after 48 hrs by sulforhodamine B assay relative to control; conditions: HT-29, 48 h, read-out: Activity
# A549 = experiment: Growth inhibition of human A549/ATCC cells assessed as cell growth at 10 uM after 48 hrs by sulforhodamine B assay relative to control; conditions: A549, 48 h, read-out: Activity
# NCI-H226 = experiment: Growth inhibition of human NCI-H226 cells assessed as cell growth at 10 uM after 48 hrs by sulforhodamine B assay relative to control; conditions: NCI-H226, 48 h, read-out: Activity
# CCRF-CEM = experiment: Growth inhibition of human CCRF-CEM cells assessed as cell growth at 10 uM after 48 hrs by sulforhodamine B assay relative to control; conditions: read-out: Activity
# SR = experiment: Growth inhibition of human SR cells assessed as cell growth at 10 uM after 48 hrs by sulforhodamine B assay relative to control; conditions: read-out: Activity
# SN12C = experiment: Growth inhibition of human SN12C cells assessed as cell growth at 10 uM after 48 hrs by sulforhodamine B assay relative to control; conditions: read-out: Activity
# HL-60(TB) = experiment: Growth inhibition of human HL-60(TB) cells assessed as cell growth at 10 uM after 48 hrs by sulforhodamine B assay relative to control; conditions: HL-60, 48 h, read-out: Activity
# [1] = Growth inhibition of human OVCAR8 cells assessed as cell growth at 10 uM after 48 hrs by sulforhodamine B assay relative to control; conditions: OVCAR-8, 48 h, read-out: Activity
# M14 = experiment: Growth inhibition of human M14 cells assessed as cell growth at 10 uM after 48 hrs by sulforhodamine B assay relative to control; conditions: M14, 48 h, read-out: Activity
# [2] = Growth inhibition of human UACC257 cells assessed as cell growth at 10 uM after 48 hrs by sulforhodamine B assay relative to control; conditions: UACC-257, 48 h, read-out: Activity
# MDA-MB-468 = experiment: Growth inhibition of human MDA-MB-468 cells assessed as cell growth at 10 uM after 48 hrs by sulforhodamine B assay relative to control; conditions: MDA-MB-468, 48 h, read-out: Activity
# SK-OV-3 = experiment: Growth inhibition of human SKOV3 cells assessed as cell growth at 10 uM after 48 hrs by sulforhodamine B assay relative to control; conditions: SK-OV-3, 48 h, read-out: Activity
# [3] = Growth inhibition of human HCC2998 cells assessed as cell growth at 10 uM after 48 hrs by sulforhodamine B assay relative to control; conditions: HCC 2998, 48 h, read-out: Activity
# HOP-62 = experiment: Growth inhibition of human HOP62 cells assessed as cell growth at 10 uM after 48 hrs by sulforhodamine B assay relative to control; conditions: HOP-62, 48 h, read-out: Activity
# PC-3 = experiment: Growth inhibition of human PC3 cells assessed as cell growth at 10 uM after 48 hrs by sulforhodamine B assay relative to control; conditions: PC-3, 48 h, read-out: Activity
# [4] = Growth inhibition of human UO31 cells assessed as cell growth at 10 uM after 48 hrs by sulforhodamine B assay relative to control; conditions: UO-31, 48 h, read-out: Activity
# K562 = experiment: Growth inhibition of human K562 cells assessed as cell growth at 10 uM after 48 hrs by sulforhodamine B assay relative to control; conditions: K562, 48 h, read-out: Activity
# [5] = Growth inhibition of human BT549 cells assessed as cell growth at 10 uM after 48 hrs by sulforhodamine B assay relative to control; conditions: BT-549, 48 h, read-out: Activity
# RPMI-8226 = experiment: Growth inhibition of human RPMI8226 cells assessed as cell growth at 10 uM after 48 hrs by sulforhodamine B assay relative to control; conditions: RPMI-8226, 48 h, read-out: Activity
# [6] = Growth inhibition of human UACC62 cells assessed as cell growth at 10 uM after 48 hrs by sulforhodamine B assay relative to control; conditions: UACC-62, 48 h, read-out: Activity
# [7] = Growth inhibition of human SF539 cells assessed as cell growth at 10 uM after 48 hrs by sulforhodamine B assay relative to control; conditions: SF-539, 48 h, read-out: Activity
# MDA-MB-435 = experiment: Growth inhibition of human MDA-MB-435 cells assessed as cell growth at 10 uM after 48 hrs by sulforhodamine B assay relative to control; conditions: MDA-MB-435, 48 h, read-out: Activity
# HCT-116 = experiment: Growth inhibition of human HCT116 cells assessed as cell growth at 10 uM after 48 hrs by sulforhodamine B assay relative to control; conditions: HCT-116, 48 h, read-out: Activity
# SNB-75 = experiment: Growth inhibition of human SNB75 cells assessed as cell growth at 10 uM after 48 hrs by sulforhodamine B assay relative to control; conditions: SNB-75, 48 h, read-out: Activity
# DU-145 = experiment: Growth inhibition of human DU145 cells assessed as cell growth at 10 uM after 48 hrs by sulforhodamine B assay relative to control; conditions: DU-145, 48 h, read-out: Activity
# NCI-H522 = experiment: Growth inhibition of human NCI-H522 cells assessed as cell growth at 10 uM after 48 hrs by sulforhodamine B assay relative to control; conditions: NCI-H522, 48 h, read-out: Activity
# [8] = Growth inhibition of human NCI-ADR-RES cells assessed as cell growth at 10 uM after 48 hrs by sulforhodamine B assay relative to control; conditions: read-out: Activity
# U-251 = experiment: Growth inhibition of human U251 cells assessed as cell growth at 10 uM after 48 hrs by sulforhodamine B assay relative to control; conditions: U-251, 48 h, read-out: Activity
# [9] = Growth inhibition of human OVCAR3 cells assessed as cell growth at 10 uM after 48 hrs by sulforhodamine B assay relative to control; conditions: OVCAR-3, 48 h, read-out: Activity
# [10] = Growth inhibition of human MOLT4 cells assessed as cell growth at 10 uM after 48 hrs by sulforhodamine B assay relative to control; conditions: MOLT-4, 48 h, read-out: Activity
# SK-MEL-2 = experiment: Growth inhibition of human SK-MEL-2 cells assessed as cell growth at 10 uM after 48 hrs by sulforhodamine B assay relative to control; conditions: SK-MEL-2, 48 h, read-out: Activity
Compound,growth at 10 µM (SNB-19),growth at 10 µM (NCI-H23),growth at 10 µM (SK-MEL-5),growth at 10 µM (HT-29),growth at 10 µM (A549),growth at 10 µM (NCI-H226),growth at 10 µM (CCRF-CEM),growth at 10 µM (SR),growth at 10 µM (SN12C),growth at 10 µM (HL-60(TB)),growth at 10 µM [1],growth at 10 µM (M14),growth at 10 µM [2],growth at 10 µM (MDA-MB-468),growth at 10 µM (SK-OV-3),growth at 10 µM [3],growth at 10 µM (HOP-62),growth at 10 µM (PC-3),growth at 10 µM [4],growth at 10 µM (K562),also measured
O=C1CS/C(=N\c2nc(-c3ccccc3Cl)cc(-c3ccc(Cl)cc3Cl)n2)N1,101%,90%,103%,107%,91.2%,104%,85.9%,75.1%,98.5%,96.1%,96.1%,94%,107%,93.5%,95.4%,101%,87.5%,83.8%,58%,79.5%,growth at 10 µM [5]: 98.4%; growth at 10 µM (RPMI-8226): 99.6%; growth at 10 µM [6]: 91.2%; growth at 10 µM [7]: 103%; growth at 10 µM (MDA-MB-435): 78.5%; growth at 10 µM (HCT-116): 94.5%; growth at 10 µM (SNB-75): 76.6%; growth at 10 µM (DU-145): 105%; growth at 10 µM (NCI-H522): 88.6%; growth at 10 µM [8]: 98.1%; growth at 10 µM (U-251): 105%; growth at 10 µM [9]: 101%; growth at 10 µM [10]: 92%; growth at 10 µM (SK-MEL-2): 97.9%
O=C1N/C(=N/c2nc(-c3ccccc3Cl)cc(-c3ccc(Cl)cc3Cl)n2)S/C1=C/c1ccc(Cl)cc1,93.4%,76%,83.6%,103%,88.8%,98.5%,75.5%,32.4%,91.5%,87.1%,91.6%,102%,93.2%,34.2%,99.2%,102%,80.2%,79%,55.2%,37.6%,growth at 10 µM [5]: 92.2%; growth at 10 µM (RPMI-8226): 83.6%; growth at 10 µM [6]: 70.2%; growth at 10 µM [7]: 97.3%; growth at 10 µM (MDA-MB-435): 32.1%; growth at 10 µM (HCT-116): 75.4%; growth at 10 µM (SNB-75): 97.5%; growth at 10 µM (DU-145): 100%; growth at 10 µM (NCI-H522): 82.3%; growth at 10 µM [8]: 90.1%; growth at 10 µM (U-251): 89.4%; growth at 10 µM [9]: 89.2%; growth at 10 µM [10]: 94.2%; growth at 10 µM (SK-MEL-2): 88.9%
